Test results reported in BindingDB's records for doi:10.1210/endo.135.6.7988476 (Mcgill University, 1994).
Bridge positions count the residues as written; N and C are the ends. Square brackets hold non-standard residues; d marks the D form. Peptide text beside a SMILES is read from it. * marks the point of attachment. NH(1-naphthylmethyl) = c1ccc2c(CN*)cccc2c1; Phe(4-Cl) = N[C@@H](Cc1ccc(Cl)cc1)C(=O)O; dPhe(4-Cl) = N[C@H](Cc1ccc(Cl)cc1)C(=O)O; 2Nal = N[C@@H](Cc1ccc2ccccc2c1)C(=O)O; d1Nal = N[C@H](Cc1cccc2ccccc12)C(=O)O; d2Nal = N[C@H](Cc1ccc2ccccc2c1)C(=O)O; 1Nal = N[CH](Cc1cccc2ccccc12)C(=O)O; Thr(ol) = C[CH](O)[CH](N)CO; Abu = CC[C@H](N)C(=O)O

Key:
[1] = biological target: Somatostatin receptor type 3 (Homo sapiens, UniProt P32745)
Sequence of Somatostatin receptor type 3 (P32745 whole entry): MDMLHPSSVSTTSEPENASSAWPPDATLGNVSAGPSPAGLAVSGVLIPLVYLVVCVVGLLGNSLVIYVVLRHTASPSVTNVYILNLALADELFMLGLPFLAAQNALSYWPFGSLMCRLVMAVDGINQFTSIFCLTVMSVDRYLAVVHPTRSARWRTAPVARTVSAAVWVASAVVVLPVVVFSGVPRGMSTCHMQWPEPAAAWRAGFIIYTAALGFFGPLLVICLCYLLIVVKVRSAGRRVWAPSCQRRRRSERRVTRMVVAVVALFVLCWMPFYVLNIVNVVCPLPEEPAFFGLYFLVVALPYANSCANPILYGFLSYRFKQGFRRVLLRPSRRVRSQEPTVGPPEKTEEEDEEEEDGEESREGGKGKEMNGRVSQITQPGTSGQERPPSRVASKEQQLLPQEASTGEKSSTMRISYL

[2] = biological target: Somatostatin receptor type 1 (Homo sapiens, UniProt P30872)
Sequence of Somatostatin receptor type 1 (P30872 whole entry): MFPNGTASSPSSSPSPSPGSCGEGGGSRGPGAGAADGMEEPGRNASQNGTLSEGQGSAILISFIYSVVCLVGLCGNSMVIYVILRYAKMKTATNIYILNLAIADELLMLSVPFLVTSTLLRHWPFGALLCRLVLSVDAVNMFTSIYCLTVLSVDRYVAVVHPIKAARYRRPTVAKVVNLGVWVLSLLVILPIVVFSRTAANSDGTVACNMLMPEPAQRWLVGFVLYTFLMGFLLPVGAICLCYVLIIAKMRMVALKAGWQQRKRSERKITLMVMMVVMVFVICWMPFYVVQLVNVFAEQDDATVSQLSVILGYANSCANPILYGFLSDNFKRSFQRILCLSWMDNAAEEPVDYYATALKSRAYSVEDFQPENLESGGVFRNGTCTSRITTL

[3] = biological target: Somatostatin receptor type 2 (Homo sapiens, UniProt P30874)
Sequence of Somatostatin receptor type 2 (P30874 whole entry): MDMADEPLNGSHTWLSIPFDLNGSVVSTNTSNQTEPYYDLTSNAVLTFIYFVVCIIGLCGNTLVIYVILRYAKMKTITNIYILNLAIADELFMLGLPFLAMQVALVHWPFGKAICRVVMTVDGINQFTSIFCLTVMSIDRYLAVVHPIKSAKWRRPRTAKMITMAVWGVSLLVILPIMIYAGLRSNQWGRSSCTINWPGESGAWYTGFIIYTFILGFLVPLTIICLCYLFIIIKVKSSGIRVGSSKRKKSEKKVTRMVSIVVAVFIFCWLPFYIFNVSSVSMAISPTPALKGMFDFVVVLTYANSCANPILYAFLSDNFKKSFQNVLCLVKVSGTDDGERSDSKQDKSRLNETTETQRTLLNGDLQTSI

[4] = biological target: Somatostatin receptor type 4 (Homo sapiens, UniProt P31391)
Sequence of Somatostatin receptor type 4 (P31391 whole entry): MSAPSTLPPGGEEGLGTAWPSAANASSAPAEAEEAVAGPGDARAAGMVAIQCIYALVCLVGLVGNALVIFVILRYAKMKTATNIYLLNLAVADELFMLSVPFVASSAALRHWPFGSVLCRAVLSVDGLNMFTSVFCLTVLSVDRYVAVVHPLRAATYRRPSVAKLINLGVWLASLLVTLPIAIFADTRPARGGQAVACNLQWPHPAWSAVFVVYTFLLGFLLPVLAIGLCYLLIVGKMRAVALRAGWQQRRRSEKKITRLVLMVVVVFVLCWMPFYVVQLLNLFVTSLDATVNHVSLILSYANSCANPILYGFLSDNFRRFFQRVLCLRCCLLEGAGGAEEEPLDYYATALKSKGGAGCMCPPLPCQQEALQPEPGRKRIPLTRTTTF

SMILES | Ki [1] [nM] | Ki [2] [nM] | Ki [3] [nM] | Ki [4] [nM]
CC(C)[C@@H]1NC(=O)[C@H](CCCCN)NC(=O)[C@@H](Cc2c[nH]c3ccccc23)NC(=O)[C@H](Cc2ccc(O)cc2)NC(=O)[C@@H](C)N(C)C(=O)[C@H](Cc2ccccc2)NC1=O | 14.6 | 107 |  | 
CC(C)[C@@H]1NC(=O)[C@H](CCCCN)NC(=O)[C@@H](Cc2c[nH]c3ccccc23)NC(=O)[C@H](Cc2ccc(O)cc2)NC(=O)[C@@H](NC(=O)[C@H](N)Cc2ccc3ccccc3c2)CSSC[C@@H](C(=O)N[C@H](C(N)=O)[C@@H](C)O)NC1=O [3-(2-Naphtyl)-D-Ala-L-Cys(1)-L-Tyr-D-Trp-L-Lys-L-Val-L-Cys(1)-L-Thr-NH2] | 43 |  | 1.8 | 
C[C@H](NC(=O)[C@H](N)Cc1ccccc1)C(=O)N[C@@H](Cc1ccccc1)C(=O)N[C@H](Cc1c[nH]c2ccccc12)C(=O)N[C@@H](CCCCN)C(=O)N[C@H](C(=O)N[C@@H](C)C(=O)N[C@H](C(N)=O)[C@@H](C)O)[C@@H](C)O [BIM 23051] (H-[dF]AF[dW]KTAT-NH2) |  |  | 1000 | 49
CC(C)[C@H](NC(=O)[C@H](CCCCN)NC(=O)[C@@H](Cc1c[nH]c2ccccc12)NC(=O)[C@H](Cc1ccc(O)cc1)NC(=O)[C@H](Cc1ccc(Cl)cc1)NC(=O)[C@H](N)Cc1ccccc1)C(=O)N[C@@H](Cc1ccccc1)C(=O)N[C@H](C(N)=O)[C@@H](C)O [BIM 23057] (H-[dF][Phe(4-Cl)]Y[dW]KVFT-NH2) |  |  | 1000 | 38.5
CC[C@H](NC(=O)[C@@H](N)Cc1ccc(Cl)cc1)C(=O)N[C@@H](Cc1ccc(O)cc1)C(=O)N[C@H](Cc1c[nH]c2ccccc12)C(=O)N[C@@H](CCCCN)C(=O)N[C@H](C(=O)N[C@@H](C)C(=O)N[C@H](Cc1ccccc1)C(N)=O)C(C)C [BIM 23067] (H-[Phe(4-Cl)][Abu]Y[dW]KVA[dF]-NH2) | 14.6 | 1000 | 44.4 | 1000
C[C@@H](O)[C@H](NC(=O)[C@H](Cc1ccccc1)NC(=O)[C@@H](NC(=O)[C@H](CCCCN)NC(=O)[C@@H](Cc1c[nH]c2ccccc12)NC(=O)[C@H](Cc1ccc(O)cc1)NC(=O)[C@H](Cc1ccc(Cl)cc1)NC(=O)[C@H](N)Cc1ccccc1)[C@@H](C)O)C(N)=O [BIM 23068] (H-[dF][Phe(4-Cl)]Y[dW]KTFT-NH2) | 1.54 |  | 1.55 | 9.8
C[C@@H](O)[C@H](NC(=O)[C@H](Cc1ccccc1)NC(=O)[C@@H](NC(=O)[C@H](CCCCN)NC(=O)[C@@H](Cc1c[nH]c2ccccc12)NC(=O)[C@H](Cc1ccccc1)NC(=O)[C@H](Cc1ccccc1)NC(=O)[C@H](N)Cc1ccccc1)[C@@H](C)O)C(N)=O [CAS_133073-82-2] (H-[dF]FF[dW]KTFT-NH2) |  | 31.3 | 13.5 | 141
C[C@@H](O)[C@H](NC(=O)[C@H](Cc1ccccc1)NC(=O)[C@@H](NC(=O)[C@H](CCCCN)NC(=O)[C@@H](Cc1c[nH]c2ccccc12)NC(=O)[C@H](Cc1ccc(O)cc1)NC(=O)[C@H](Cc1ccc(Cl)cc1)NC(=O)[C@H](N)Cc1ccc2ccccc2c1)[C@@H](C)O)C(N)=O [CAS_150155-63-8] (H-[d2Nal][Phe(4-Cl)]Y[dW]KTFT-NH2) |  |  | 26.2 | 1000
CC[C@@H]1NC(=O)[C@H](CCCCN)NC(=O)[C@@H](Cc2c[nH]c3ccccc23)NC(=O)[C@H](Cc2ccc(O)cc2)NC(=O)[C@@H](NC(=O)[C@H](N)Cc2ccccc2)CSSC[C@@H](C(=O)N[C@H](C(N)=O)[C@@H](C)O)NC1=O [D-Phe-L-Cys(1)-L-Tyr-D-Trp-L-Lys-L-Abu-L-Cys(1)-L-Thr-NH2] | 8.2 |  |  | 1000
CC(C)[C@H](NC(=O)[C@H](CCCCN)NC(=O)[C@@H](Cc1c[nH]c2ccccc12)NC(=O)[C@H](Cc1ccc(O)cc1)NC(=O)[C@H](Cc1ccccc1)NC(=O)[C@H](N)Cc1ccccc1)C(=O)N[C@@H](Cc1ccccc1)C(=O)N[C@H](Cc1ccccc1)C(N)=O [D-Phe-Phe-Tyr-D-Trp-Lys-Val-Phe-D-Phe-NH2] (H-[dF]FY[dW]KVF[dF]-NH2) |  |  | 1000 | 500
CC(C)C1NC(=O)C(CCCCN)NC(=O)C(Cc2c[nH]c3ccccc23)NC(=O)C(Cc2ccc(O)cc2)NC(=O)C(NC(=O)C(N)Cc2cccc3ccccc23)CSSCC(C(=O)NC(CO)C(C)O)NC1=O (configuration not stated) [DC23-60] (H-[1Nal]CYWKVC[Thr(ol)]; disulfide 2-7; configuration not given here) | 73 | 70.4 | 0.26 | 1000
CC(O)C1NC(=O)C(CCCCN)NC(=O)C(Cc2c[nH]c3ccccc23)NC(=O)C(Cc2ccccc2)NC(=O)C(NC(=O)C(N)Cc2ccccc2)CSSCC(C(=O)NCc2cccc3ccccc23)NC1=O (configuration not stated) [EC5-21] (H-FCFWKTC-{NH(1-naphthylmethyl)}; disulfide 2-7; configuration not given here) | 69 |  | 0.028 | 207
CC(C)[C@H](NC(=O)[C@H](CCCCN)NC(=O)[C@@H](Cc1c[nH]c2ccccc12)NC(=O)[C@H](Cc1ccc(O)cc1)NC(=O)[C@H](C)NC(=O)[C@H](N)Cc1ccccc1)C(=O)N[C@@H](C)C(=O)N[C@@H](Cc1ccc2ccccc2c1)C(N)=O [L-Alaninamide,D-phenylalanyl-L-alanyl-L-tyrosyl-D-tryptophyl-L-lysyl-L-valyl-L-alanyl-3-(2-naphthalenyl)-(9CI)] (H-[dF]AY[dW]KVA[2Nal]-NH2) |  |  | 8.3 | 1000

More lines, now with the values ahead:

Ki [1] [nM] | Ki [2] [nM] | Ki [3] [nM] | Ki [4] [nM] | SMILES
7.7 |  | 2.7 | 27 | CC1NC(=O)C(CCCCN)NC(=O)C(Cc2c[nH]c3ccccc23)NC(=O)C(Cc2ccc(O)cc2)NC(=O)C(NC(=O)C(N)Cc2ccccc2)CSSCC(C(=O)NCc2cccc3ccccc23)NC1=O (configuration not stated) [BIM 23034] (H-FCYWKAC-{NH(1-naphthylmethyl)}; disulfide 2-7; configuration not given here)
 |  | 0.24 | 1000 | CC(C)[C@@H]1NC(=O)[C@H](CCCCN)NC(=O)[C@@H](Cc2c[nH]c3ccccc23)NC(=O)[C@H](Cc2ccc(O)cc2)NC(=O)[C@@H](NC(=O)[C@H](N)Cc2ccc3ccccc3c2)CSSC[C@@H](C(=O)N[C@@H](Cc2ccc3ccccc3c2)C(N)=O)NC1=O [BIM 23042] (H-[d2Nal]CY[dW]KVC[2Nal]-NH2; disulfide 2-7)
10.8 | 142 | 1000 | 16.6 | CC(C)[C@H](NC(=O)[C@H](CCCCN)NC(=O)[C@@H](Cc1c[nH]c2ccccc12)NC(=O)[C@H](Cc1ccc(O)cc1)NC(=O)[C@H](Cc1ccccc1)NC(=O)[C@H](N)Cc1ccccc1)C(=O)N[C@@H](Cc1ccccc1)C(=O)N[C@H](Cc1cccc2ccccc12)C(N)=O [BIM 23056] (H-[dF]FY[dW]KVF[d1Nal]-NH2)
14.6 | 61 | 0.71 | 56 | CC(O)C1NC(=O)C(CCCCN)NC(=O)C(Cc2c[nH]c3ccccc23)NC(=O)C(Cc2ccc(O)cc2)NC(=O)C(NC(=O)C(N)Cc2ccccc2)CSSCC(C(=O)NCc2cccc3ccccc23)NC1=O (configuration not stated) [BIM 23060] (H-FCYWKTC-{NH(1-naphthylmethyl)}; disulfide 2-7; configuration not given here)
1.4 | 115 | 9.8 | 8.3 | CC(C)[C@H](NC(=O)[C@H](CCCCN)NC(=O)[C@@H](Cc1c[nH]c2ccccc12)NC(=O)[C@H](Cc1ccc(O)cc1)NC(=O)[C@H](Cc1ccccc1)NC(=O)[C@H](N)Cc1ccccc1)C(=O)N[C@@H](Cc1ccccc1)C(=O)N[C@H](C(N)=O)[C@@H](C)O [BIM-23058] (H-[dF]FY[dW]KVFT-NH2)
30.9 | 1000 | 5.4 | 45 | CC(C)[C@@H]1NC(=O)[C@H](CCCCN)NC(=O)[C@@H](Cc2c[nH]c3ccccc23)NC(=O)[C@H](Cc2ccc(O)cc2)NC(=O)[C@@H](NC(=O)[C@H](N)Cc2ccccc2)CSSC[C@@H](C(=O)N[C@@H](Cc2c[nH]c3ccccc23)C(N)=O)NC1=O [CAS_71306] (H-[dF]CY[dW]KVCW-NH2; disulfide 2-7)
 |  | 55.5 | 1000 | CC(C)[C@H](NC(=O)[C@H](CCCCN)NC(=O)[C@@H](Cc1c[nH]c2ccccc12)NC(=O)[C@H](Cc1ccc(O)cc1)NC(=O)[C@H](C)NC(=O)[C@H](N)Cc1ccc(Cl)cc1)C(=O)N[C@@H](C)C(=O)N[C@@H](Cc1ccc2ccccc2c1)C(N)=O [CAS_150155-67-2] (H-[dPhe(4-Cl)]AY[dW]KVA[2Nal]-NH2)
13.1 |  | 5.9 | 1000 | CC(C)[C@H](NC(=O)[C@H](CCCCN)NC(=O)[C@@H](Cc1c[nH]c2ccccc12)NC(=O)[C@H](Cc1ccc(O)cc1)NC(=O)[C@H](C)NC(=O)[C@H](N)Cc1ccc2ccccc2c1)C(=O)N[C@@H](C)C(=O)N[C@H](C(N)=O)[C@@H](C)O [D-Nal-Ala-Tyr-D-Trp-Lys-Val-Ala-Thr-NH2] (H-[d2Nal]AY[dW]KVAT-NH2)
11.5 | 41 | 0.4 | 58 | C[C@@H](O)[C@H](NC(=O)[C@@H]1CSSC[C@H](NC(=O)[C@H](N)Cc2ccc3ccccc3c2)C(=O)N[C@@H](Cc2ccc(O)cc2)C(=O)N[C@H](Cc2c[nH]c3ccccc23)C(=O)N[C@@H](CCCCN)C(=O)N[C@@H]([C@@H](C)O)C(=O)N1)C(N)=O [D-Nal-c[Cys-Tyr-D-Trp-Lys-Thr-Cys]-Thr-NH2]
0.09 | 1000 | 0.024 | 1000 | CC[C@@H]1NC(=O)[C@H](CCCCN)NC(=O)[C@@H](Cc2c[nH]c3ccccc23)NC(=O)[C@H](Cc2ccc(O)cc2)NC(=O)[C@@H](NC(=O)[C@H](N)Cc2ccccc2)CSSC[C@@H](C(=O)N[C@@H](Cc2ccc3ccccc3c2)C(N)=O)NC1=O [D-Phe-Cys-Tyr-D-Trp-Lys-Abu-Cys-Nal-NH] (H-[dF]CY[dW]K[Abu]C[2Nal]-NH2; disulfide 2-7)
